The text below walks through data of PubChem BioAssay (NCI).

Common to all, as to assay: DTP human tumour cell line panel, 48 h
Assay [1] deals with SNB-75 CNS.
The subject of assay [2] is HCC-2998 colon.
Assay [3] relates to OVCAR-5 ovarian.
Assay [4] deals with ACHN renal.
Assay [5] concerns RPMI-8226 leukemia.
For assay [6], the system named is UO-31 renal.
Assay [7] relates to SF-295 CNS.
In assay [8] the test system is NCI-H460 lung.
Assay [9] has as its system MALME-3M melanoma.
The subject of assay [10] is OVCAR-4 ovarian.

Usually GI50 stands for the concentration giving 50% growth inhibition. The TGI is the concentration giving total growth inhibition. A lower TGI goes with greater sensitivity of the cells.

Several values for one entry are separate records, joined by “and”; a condition that tells them apart may be missing. Equal entries are not always repeated.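 How tested: cells in 96-well plates exposed to compound for 48 hours at five concentrations. GI50 marks 50% less growth. Definition used: TGI = concentration required for complete inhibition of growth.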 Bounds are passed on as bounds.

Turning to `CCC[CH2][Sn](=[O])[CH2]CCC`, the GI50 was > 39.7 µM in [1]; > 50 µM in assay [2]; > 30.3 µM in assay [3]; > 50 µM in [4]; > 50 µM in [5]; > 50 µM in assay [6]. The GI50 in [7], in [8], in assay [9] and in assay [10] was > 50 µM each time. The TGI in assay [1], in assay [2], in assay [3], in [4], in [5] and in assay [6] was > 50 µM throughout. Further, the concentration for total growth inhibition (TGI) in [7], in assay [8], in assay [9] and in assay [10] was > 50 µM throughout.
As to `COc1ccc(-c2ncnc3c2ncn3CC#CCCl)cc1`, the GI50 was 1.64 µM in assay [1]; 17.6 µM in [2]; 3.25 µM in assay [3]; 3.62 µM in assay [4]; 3.46 µM in [5]; 2.43 µM in [6]. For the same molecule, the GI50 in [7] is 2.35 µM; in assay [8], 3.27 µM; in assay [9], 2.58 µM; in assay [10], 2.66 µM. The total growth inhibition concentration (TGI) in [1] came out at 4.84 µM; in assay [2], 31.8 µM; in assay [3] it was 12.1 µM; in assay [4], 14.8 µM; in [5], 20 µM; in assay [6], 15.3 µM. For the same molecule, the total growth inhibition concentration (TGI) in assay [7] is 7.15 µM; in assay [8] it was 12.4 µM; in assay [9], 16 µM; in assay [10] it was 12.5 µM.
Take `O=C1c2ccccc2C(=O)N1CCc1ncc(-c2ccccc2)[nH]1`: the TGI in assay [1], in [2], in assay [3], in [4], in [6] and in assay [7] was > 100 µM each time. In addition, the TGI in assay [8], in assay [9] and in [10] was > 100 µM each time.
Take `CN(C)c1ccc(/C=c2\sc3nnc(-c4ccco4)n3c2=O)cc1`: the TGI in [1], in assay [2], in assay [3], in assay [5], in assay [6] and in [7] was > 100 µM in each case. For the same molecule, the TGI in assay [8], in assay [9] and in assay [10] was > 100 µM throughout.
Regarding `O=C(O)Cc1cccc2c(=O)cc(-c3ccccc3)oc12`, the GI50 in assay [1] is 345 µM; in assay [2], > 1000 µM; in assay [3] it was > 1000 µM; in assay [4], 813 µM; in assay [5], 388 µM; in [6], 25.5 µM. The GI50 in assay [7] was 400 µM; in assay [8], 545 µM; in assay [9] it was 725 µM; in assay [10], 546 µM. The TGI is 249 µM and > 676 µM in assay [1]; > 1000 µM in assay [2]; 250 µM and > 1000 µM in assay [3]; > 1000 µM in assay [4]; 250 µM and > 1000 µM in assay [5]; > 64.4 µM and 174 µM and 334 µM in assay [6]. The TGI in assay [7] is 250 µM and > 1000 µM; in assay [8], > 1000 µM; in assay [9] it was > 1000 µM; in assay [10], 250 µM and > 1000 µM.
As to `CC1(C)N=C(N)N=C(N)N1c1ccc(CNC(=O)Nc2ccc(S(=O)(=O)F)c(Cl)c2)c(Cl)c1`, the GI50 is 3.47 µM in [1]; 1.11 µM in assay [2]; 0.332 µM in assay [3]; 5.28 µM in assay [4]; 1.43 µM in [5]; 53.7 µM in [6]. Also, the GI50 in assay [7] is 5.41 µM; in assay [8], 0.0456 µM; in assay [9] it was 17.3 µM; in assay [10], 4.57 µM. The TGI in assay [1], in [2], in [3], in assay [4], in assay [5] and in assay [6] was > 100 µM in each case. The total growth inhibition concentration (TGI) in assay [7], in [8], in assay [9] and in [10] was > 100 µM in each case.
Regarding `CCOC(=O)c1ccc(-n2cnc(-c3ccc([N+](=O)[O-])cc3)c2)cc1`, the TGI in assay [1], in assay [2], in assay [3], in assay [4], in assay [5] and in [6] was > 100 µM throughout. The TGI in assay [7], in assay [8] and in assay [9] was > 100 µM each time.
For the molecule `CC1(C)Oc2ccc3ccc(=O)oc3c2C(O)C1O` (stereo unspecified), the TGI was > 100 µM in assay [1]; > 100 µM in [2]; > 100 µM in assay [3]; > 100 µM in assay [4]; 97.9 µM in assay [5]; > 100 µM in assay [6]. Besides, the TGI in [7], in assay [8], in assay [9] and in assay [10] was > 100 µM throughout.
With `CCSC[C@@H]1C[C@](O)(c2ccc(Cl)cc2)[C@@H](c2ccc(Cl)cc2)O1`, the GI50 in assay [1] is 16.3 µM; in [2], 20.3 µM; in assay [3] it was 18.2 µM; in assay [4] it was 19.6 µM; in assay [5], 20.8 µM; in [6], 16.5 µM. For the same molecule, the GI50 is 18.9 µM in assay [7], 17.3 µM in [8], 15.2 µM in [9] and 16.7 µM in [10]. Further, the TGI in assay [1] is 32.4 µM; in assay [2], 39.3 µM; in assay [3], 34.3 µM; in assay [4], 36.6 µM; in assay [5], 51.2 µM; in [6], 30.4 µM. The TGI was 35.4 µM in assay [7], 34.1 µM in [8], 29.8 µM in [9] and 32.1 µM in [10].
As to `Cc1ccc(S(=O)(=O)ON2C(=O)c3cccc4cc([N+](=O)[O-])cc(c34)C2=O)cc1`, the TGI in assay [1] is > 100 µM; in [2] it was 58.9 µM; in assay [3] it was > 100 µM; in assay [4], > 100 µM; in [5] it was > 100 µM; in [6] it was > 100 µM. Further, the TGI in assay [7], in [8], in [9] and in [10] was > 100 µM in each case.
On to `CC(C)(C)C(=O)N1C(C(=O)O)Cc2ccccc2[C@@H]1Cc1ccccc1` (stereo partly specified), for which the TGI in assay [1], in [2], in assay [3], in assay [4], in assay [5] and in [7] was > 100 µM each time. In addition, the TGI in assay [8], in assay [9] and in [10] was > 100 µM each time.
`CC(Oc1ccc2c(-c3ccc(Cl)cc3)cc(=O)oc2c1)C(=O)O` (stereo unspecified): the concentration for total growth inhibition (TGI) in [1], in assay [2], in assay [4], in [6], in assay [7] and in assay [8] was > 100 µM in each case. The TGI in assay [9] and in assay [10] was > 100 µM throughout.
Take `COc1ccc2c(c1)c(-c1nc(-c3cn(C)c4ccncc34)cs1)cn2C`: the GI50 was 14.7 µM in assay [1]; 1.89 µM in [2]; 1.81 µM in assay [3]; 1.73 µM in assay [4]; 1.58 µM in [6]; 1.66 µM in assay [7]. Moreover, the GI50 is 1.94 µM in assay [8], 2.02 µM in assay [9] and 2.1 µM in assay [10]. The TGI in [1] came to 28 µM; in assay [2] it was 3.38 µM; in assay [3], 3.53 µM; in [4], 3.11 µM; in assay [6], 3.17 µM; in assay [7], 3.16 µM. Further, the values for the TGI in assay [8], in [9] and in [10] were 3.68 µM, 3.58 µM and 4.62 µM, respectively.
Take `CN(C)c1ccc(/C=N/NC(N)=S)nc1`: the GI50 in assay [1] was 1.82 µM; in [2] it was 3.35 µM; in assay [4] it was 2.55 µM; in assay [5], 3.21 µM; in assay [6], 2.34 µM; in [7] it was 2.91 µM. Moreover, the figures for the GI50 in assay [8], in assay [9] and in assay [10] were 2.89 µM, 7.91 µM and 4.3 µM, respectively. Moreover, the TGI in [1] was > 100 µM; in [2], > 100 µM; in assay [4] it was > 100 µM; in [5], > 100 µM; in [6], 7.46 µM; in assay [7] it was 16.1 µM. The TGI in assay [8] was 29.3 µM; in [9], > 100 µM; in assay [10], > 100 µM.
Take `COc1ccc(/C=C/c2cc(OC)c(OC(C)=O)c(OC)c2)cc1`: the total growth inhibition concentration (TGI) is 60.5 µM in assay [1]; 39 µM in assay [2]; 59 µM in assay [3]; > 100 µM in [4]; > 100 µM in assay [5]; 49.3 µM in [6]. Also, the results for the total growth inhibition concentration (TGI) in assay [8], in assay [9] and in assay [10] were 60.4 µM, 88.1 µM and > 100 µM, respectively.
Regarding `NC(=S)N1N=C2CCCCCC[C@@H]2[C@H]1c1ccccc1`, the concentration for total growth inhibition (TGI) in [1] is > 100 µM; in assay [2] it was > 100 µM; in [3], > 100 µM; in assay [4] it was > 100 µM; in assay [5], 45 µM; in assay [6], > 100 µM. For the same molecule, the TGI in [7], in assay [8] and in [9] was > 100 µM throughout.
Consider `O=C1Nc2c(Cl)cc(Cl)cc2/C1=N/N=C/c1ccco1`, for which the TGI was 42.7 µM in assay [1]; > 100 µM in assay [2]; > 100 µM in assay [3]; > 100 µM in assay [4]; 55.4 µM in assay [6]; > 100 µM in assay [7]. Further, the TGI in assay [8], in assay [9] and in assay [10] was > 100 µM each time.
For `O=C(CC1(O)C(=O)Nc2c(Cl)cc(Cl)cc21)c1ccccc1` (stereo unspecified), the TGI in [1], in assay [3], in assay [4], in assay [5], in [6] and in [7] was > 100 µM in each case. In addition, the concentration for total growth inhibition (TGI) in [8], in [9] and in assay [10] was > 100 µM throughout.
For `COc1ccc(CC(=O)NCCc2ccc(OC)c(OC)c2OC)cc1`, the TGI in [1], in [2], in assay [3], in [4], in [5] and in assay [6] was > 100 µM each time. The TGI in assay [7], in assay [8] and in assay [9] was > 100 µM each time.
Regarding `CCN1CCN(CCNc2nccc(-c3c(-c4ccc(F)c(O)c4)nc4occn34)n2)S1(=O)=O`, the GI50 in assay [1] is 3.65 µM; in [2], 6.19 µM; in assay [3], > 100 µM; in assay [4], 3.44 µM; in assay [6], 2.66 µM; in assay [7] it was 5.27 µM. The GI50 is 4.92 µM in [8], 3.8 µM in [9] and 4.59 µM in [10]. In addition, the TGI in assay [1], in assay [2], in assay [3], in assay [4], in assay [6] and in [7] was > 100 µM throughout. For the same molecule, the TGI in [8], in [9] and in [10] was > 100 µM each time.
Turning to `C=C(C)[C@@H]1CC[C@]2(CO)CC[C@]3(C)[C@H](CC[C@@H]4[C@@]5(C)CCCNC(C)(C)[C@@H]5CC[C@]43C)[C@@H]12`, the GI50 in assay [1] is 1.54 µM; in assay [2], 1.51 µM; in [3] it was 1.51 µM; in assay [4], 1.7 µM; in [5] it was 1.94 µM; in assay [6], 1.56 µM. The GI50 is 1.66 µM in assay [7], 1.63 µM in assay [8] and 1.5 µM in assay [9]. The total growth inhibition concentration (TGI) in assay [1] stood at 2.91 µM; in [2], 2.93 µM; in [3], 2.89 µM; in assay [4], 3.09 µM; in assay [5], 4.51 µM; in assay [6] it was 2.99 µM. Moreover, the figures for the TGI in [7], in [8] and in assay [9] were 3.13 µM, 3.21 µM and 3.05 µM, respectively.
